Experimental data as given in EP1914309A1 (priority 2006, dated 2008).

Experiments:
HIV-1 = conditions: concentration at which cell infection by a virus having tropism for said cell is 100% blocked
Description: A "saturating dose of an inhibitor" denotes a concentration of inhibitor at which cell infection by a virus having tropism for said cell is 100% blocked by the inhibitor, which is function of the inhibitor.

X4 tropic virus = conditions: mixture of viral envelopes from reference viruses NL4-3 and JR-CSF; infection via CXCR4; inhibitor at saturating dose; Figure 5
Description: Viral supernatants are used to infect U373MG-CD4 indicator cells expressing either the CCR5 or CXCR4 co-receptor (U373-CCR5 or U373-CXCR4), in presence or absence of co-receptor inhibitors at a saturating dose. The indicator cells contain the lacZ gene under control of the HIV-1 LTR which allows the determination of viral infection and thus of viral tropism using a colorimetric assay based on the expression of the β-galactosidase by Tat (see Figure 4).
In the RVA tropism, viral infection is detected independently for both co-receptors. A sample is considered positive when the ratio [OD sample/ OD control] reaches or exceeds 1.5 (the control being an R5-tropic virus on CXCR4+ cells or a X4-tropic virus on CCR5+ cells).
On the day of infection, the condition of the indicator U373-CCR5 and U373-CXCR4 cells is verified. CXCR4- and CCR5-inhibitors are prepared at 4x their final concentrations used in the test (e.g. 4x AMD-3100 at 8 µg/ml). […]
The β-galactosidase produced by the infected U373-CCR5 or U373-CXCR4 cells is quantified: the level of marker expressed is quantified by measuring the β-galactosidase activity by using a CPRG (chlorophenolred-β-D-galactopyranoside) substrate. […]

For `c1cc(CN2CCCNCCNCCCNCC2)ccc1CN1CCCNCCNCCCNCC1` [AMD3100], the “saturating dose of an inhibitor” value (HIV-1) was “up to 2 µg/ml” and the inhibition of infection (X4 tropic virus) was 100%.
